“Also recorded” adds a separate entry of the source.

This is an account of results in patent US12202785B2 (Texas Tech University System, priority 2018, dated 2025).

Series [1] relates to E. coli. The series can be described thus: E. coli zone of inhibition (ZOI) and recovered colony forming units (CFU) per disk. Type of series: cell-based. Particulars: dose response. Here is the method:
Minocycline and two acetylated derivatives, CMM1 (B) and CMM2 (Y), were tested in a dose response manner for A) zone of inhibition (ZOI) and B) recovered colony forming units (CFU) per disk.

The test system of series [2] is AUD traits. Particulars: seven tetracyclines tested; earlier published work of the inventors; cited from earlier work.
For series [3] the following is noted: cited from earlier work.
The test system of series [4] is DID ethanol consumption. The series can be described thus: Drinking In the Dark (DID) ethanol consumption after ten-day GI microbiome sterilization. Type of series: in vivo. Particulars: 100 mg/kg i.p.; ampicillin, neomycin, metronidazole, vancomycin pre-treatment vs none; n=7. Here is the method:
A ten-day “sterilization” treatment with ampicillin, neomycin, metronidozale and vancomycin was used. Bedding was changed daily to avoid repopulation. DID was started on day 11 after one day of no metronidazole. Tigecycline was given at 100 mg/kg intraperitoneal (i.p.) n=7, mean±SEM.

Series [5] deals with DID consumption. The experiment in a line: DID ethanol consumption after intracerebroventricular (ICV) dosing. Type of series: in vivo. The settings on record: 3 ul of 9 mg/ml icv 20 hrs prior to DID testing; n=9-11; p<0.01. Here is the method: To test the hypothesis that tigecycline works at the level of the CNS, rather than the PNS, 3 ul of drug (9 mg/ml) was given icy 20 hrs prior to DID testing. n=9-11, mean±SEM, **p<0.01.

The test system of series [6] is Drinking In the Dark (DID) murine model of binge drinking. The experiment in a line: Drinking In the Dark (DID) murine model of binge drinking. Type of series: in vivo, mice. The settings on record: for binge ethanol consumption: figure legends FIG. 8C to 15C, dose not given. The procedure: Using a standard Drinking In the Dark (DID) murine model of binge drinking, we tested the effect of 0, 25, 35, 50 and 100 mg/kg per os (p.o.) acetylated minocycline (derivative Y, or CMM1) vs control.

Series [7] deals with DBA/2J mice, alcohol withdrawal symptoms. The experiment in a line: Alcohol withdrawal, Handling Induced Convulsion scores. Type of series: in vivo. Here is the method:
Female and male DBA/2J mice were tested with CMM1, 100 mg/kg p.o., at 2 hrs following 4 g/kg 20% ethanol in saline. Shown are the Handling Induced Convulsion scores, background subtracted and summed over 24 hours. […] Mean±SEM, n=5/group.

The subject of series [8] is Large White x Landrace hybrid swine. The series can be described thus: Two-bucket choice water vs 5% ethanol in swine. The settings on record: 10 mg/kg p.o., n=3/group.

With `CN(C)c1ccc(O)c2c1CC1CC3C(N(C)C)C(O)=C(C(N)=O)C(=O)C3(O)C(O)=C1C2=O` (stereo not shown) [Minocycline, 4,7-Bis-dimethylamino-3,10,12,12a-tetrahydroxy-1,11-dioxo-1,4,4a,5,5a,6,11,12a-octahydro-naphthacene-2-carboxylic acid amide], the “antibiotic activity (ZOI and recovered CFU per disk)” value in series [1] is “eliminated E. coli”. For the same compound, the “efficacy against AUD traits” value in series [2] is “efficacious; also recorded: effective”.

Turning to `CN(C)[C@@H]1C(O)=C(C(N)=O)C(=O)[C@@]2(O)C(O)=C3C(=O)c4c(O)ccc(Cl)c4[C@@H](O)[C@H]3C[C@@H]12` [Demeclocycline], in series [3], the LogD is on record as −3.40 and the LogP was −1.07.

Turning to `CN(C)c1cc(NC(=O)CNC(C)(C)C)c(O)c2c1C[C@H]1C[C@H]3[C@H](N(C)C)C(O)=C(C(N)=O)C(=O)[C@@]3(O)C(O)=C1C2=O` [Tigecycline], in series [2], the “efficacy against AUD traits” value is listed as “efficacious; also recorded: effective”. In addition, in series [3], the LogD is −2.73 and the log partition coefficient (LogP) is recorded as −1.30. The “DID ethanol consumption / efficacy of tigecycline after gut sterilization” value in series [4] is on record as “No significant difference”. For the same compound, the DID ethanol consumption result in series [5] is recorded as “reduced DID consumption”.

With `CC(=O)NC(=O)c1c(OC(C)=O)c2c(c(N(C)C)c1OC(C)=O)CC1Cc3c(N(C)C)ccc(OC(C)=O)c3C(=O)C1=C2OC(C)=O` (stereo not shown) [Penta Acetyl Minocycline, Acetic acid 3,10,12-triacetoxy-2-acetylcarbamoyl-4,7-bis-dimethylamino-11-oxo-5,5a,6,11-tetrahydro-naphthacen-1-yl ester], in series [6], the binge ethanol consumption entry is given as “reduction of binge ethanol consumption”.

For the compound `CC(=O)NC(=O)c1c(OC(C)=O)c2c(c(N(C)C)c1OC(C)=O)CC1Cc3c(N(C)C)ccc(OC(C)=O)c3C(=O)C1=C2O` (stereo not shown) [Tetra Acetyl Minocycline, Acetic acid 3,10-diacetoxy-2-acetylcarbamoyl-4,7-bis-dimethylamino-12-hydroxy-11-oxo-5,5a,6,11-tetrahydro-naphthacen-1-yl ester], in series [6], the binge ethanol consumption result was “reduction of binge ethanol consumption”.

Consider `COc1ccc(N(C)C)c2c1C(=O)C1=C(O)c3c(c(N(C)C)c(OC(C)=O)c(C(=O)NC(C)=O)c3OC(C)=O)CC1C2` (stereo not shown) [Methyl Ether Tri Acetate Minocycline, Acetic acid 4-acetoxy-3-acetylcarbamoyl-1,10-bis-dimethylamino-5-hydroxy-7-methoxy-6-oxo-6,11,11a,12-tetrahydro-naphthacen-2-yl ester], for which the binge ethanol consumption result in series [6] is on record as “reduction of binge ethanol consumption”.

In the case of `CCOc1ccc(N(C)C)c2c1C(=O)C1=C(O)C3(O)C(=O)C(C(N)=O)=C(O)C(N(C)C)C3CC1C2` (stereo not shown) [Ethyl Ether Minocycline, 4,7-Bis-dimethylamino-10-ethoxy-3,12,12a-trihydroxy-1,11-dioxo-1,4,4a,5,5a,6,11,12a-octahydro-naphthacene-2-carboxylic acid amide], the binge ethanol consumption result in series [6] is on record as “reduction of binge ethanol consumption”.

`CC(=O)NC(=O)c1c(OC(C)=O)c2c(c(N(C)C)c1OC(C)=O)CC1Cc3c(N(C)C)ccc(OC(C)=O)c3C(=O)C1=C2O` (stereo not shown) [CMM2, Acetic acid 3,10-diacetoxy-2-acetylcarbamoyl-4,7-bis-dimethylamino-12-hydroxy-11-oxo-5,5a,6,11-tetrahydro-naphthacen-1-yl ester]: in series [1], the “antibiotic activity (ZOI and recovered CFU per disk)” value was “loss of antibiotic activity even at high doses”.

Consider `CC(=O)NC(=O)c1c(OC(C)=O)c2c(c(N(C)C)c1OC(C)=O)CC1Cc3c(N(C)C)ccc(OC(C)=O)c3C(=O)C1=C2OC(C)=O` (stereo not shown) [CMM1, Acetic acid 3,10,12-triacetoxy-2-acetylcarbamoyl-4,7-bis-dimethylamino-11-oxo-5,5a,6,11-tetrahydro-naphthacen-1-yl ester], for which, in series [1], the “antibiotic activity (ZOI and recovered CFU per disk)” value is listed as “loss of antibiotic activity even at high doses”. Moreover, in series [6] (0, 25, 35, 50 and 100 mg/kg p.o.), the “dose dependence of reduction of alcohol consumption” value is listed as “dose-dependent response”. In addition, in series [6] (0, 25, 35, 50 and 100 mg/kg p.o. vs control, n=4/group, p=0.004), the “ethanol consumption (drinking)” value is listed as “significantly reduced drinking”. Moreover, in series [6] (FIGS. 5A to 5D), the water consumption entry is on record as “not water consumption”. In series [7] (100 mg/kg p.o.), the “efficacy on withdrawal compared with parent drug minocycline” value is on record as “more effective than the parent drug” and the “efficacy on withdrawal, females vs males” value is given as “more effective in females”. Moreover, the “alcohol withdrawal symptoms (Handling Induced Convulsion scores, background subtracted, summed over 24 hours)” value in series [7] (100 mg/kg p.o. at 2 hrs following 4 g/kg 20% ethanol, female and male, n=5/group) is recorded as “reduced alcohol withdrawal symptoms”. Also, the “onset, peak and duration of withdrawal symptoms” value in series [7] (100 mg/kg p.o., n=5/group) is “reduced onset, peak and duration of withdrawal symptoms”. Moreover, in series [8], the alcohol preference result is listed as “reduced” and the total ethanol consumption result was “reduced”.

In the case of `CCCOc1ccc(N(C)C)c2c1C(=O)C1=C(O)C3(O)C(=O)C(C(N)=O)=C(O)C(N(C)C)C3CC1C2` (stereo not shown) [Propyl Ether Minocycline, 4,7-Bis-dimethylamino-3,12,12a-trihydroxy-1,11-dioxo-10-propoxy-1,4,4a,5,5a,6,11,12a-octahydro-naphthacene-2-carboxylic acid amide], in series [6], the binge ethanol consumption result is “reduction of binge ethanol consumption”.

On to `CC(=O)NC(=O)c1c(O)cc2c(c1O)C(O)=C1C(=O)c3c(OC(C)=O)ccc(N(C)C)c3CC1C2` (stereo not shown) [De Methyl Diacetate Minocycline, Acetic acid 9-acetylcarbamoyl-4-dimethylamino-8,10,11-trihydroxy-12-oxo-5,5a,6,12-tetrahydro-naphthacen-1-yl ester], for which the binge ethanol consumption result in series [6] is “reduction of binge ethanol consumption”.

In the case of `CN(C)[C@@H]1C(=O)C(C(N)=O)=C(O)[C@@]2(O)C(=O)C3=C(O)c4c(O)cccc4[C@@](C)(O)[C@H]3[C@H](O)[C@@H]12` [Oxytetracycline], in series [3], the LogD is on record as −4.25 and the LogP was −1.5.

As to `CCCCOc1ccc(N(C)C)c2c1C(=O)C1=C(O)C3(O)C(=O)C(C(N)=O)=C(O)C(N(C)C)C3CC1C2` (stereo not shown) [Butyl Ether Minocycline, 10-Butoxy-4,7-bis-dimethylamino-3,12,12a-trihydroxy-1,11-dioxo-1,4,4a,5,5a,6,11,12a-octahydro-naphthacene-2-carboxylic acid amide], the binge ethanol consumption result in series [6] is given as “reduction of binge ethanol consumption”.

As for `C[C@H]1c2cccc(O)c2C(=O)C2=C(O)[C@]3(O)C(=O)C(C(N)=O)=C(O)[C@@H](N(C)C)[C@@H]3[C@@H](O)[C@@H]21` [Doxycycline], the “efficacy against AUD traits” value in series [2] was “efficacious; also recorded: effective”. Also, in series [3], the LogD was −3.29 and the LogP is reported as −0.54.

On to `COc1ccc(N(C)C)c2c1C(=O)C1=C(O)c3c(O)c(C(=O)NC(C)=O)c(O)c(N(C)C)c3CC1C2` (stereo not shown) [Methyl Ether N-Monoacetate Minocycline, 4,7-Bis-dimethylamino-1,3,12-trihydroxy-10-methoxy-11-oxo-5,5a,6,11-tetrahydro-naphthacene-2-carboxylic acid acetyl-amide], for which the binge ethanol consumption entry in series [6] is given as “reduction of binge ethanol consumption”.

On to `COc1ccc(N(C)C)c2c1C(=O)C1=C(O)C3(O)C(=O)C(C(N)=O)=C(O)C(N(C)C)C3CC1C2` (stereo not shown) [Methyl Ether Minocycline, 4,7-Bis-dimethylamino-3,12,12a-trihydroxy-10-methoxy-1,11-dioxo-1,4,4a,5,5a,6,11,12a-octahydro-naphthacene-2-carboxylic acid amide], for which the binge ethanol consumption entry in series [6] was “reduction of binge ethanol consumption”.
